Assay results published in ChEMBL document CHEMBL4602617, “Discovery and optimization of heteroaryl piperazines as potent and selective PI3Kδ inhibitors” (Bioorg Med Chem Lett, 2020).

Legend:
[1] = biological target: Homeodomain-interacting protein kinase 3 (Homo sapiens, UniProt Q9H422); test: Inhibition of recombinant human His-tagged HIPK3 catalytic domain expressed in baculovirus expression system using serine/threonine-9 peptide as substrate incubated for 60 mins in presence of ATP by Z'-LYTE assay
Homeodomain-interacting protein kinase 3, sequence (Q9H422 whole entry, the tested form may be a part): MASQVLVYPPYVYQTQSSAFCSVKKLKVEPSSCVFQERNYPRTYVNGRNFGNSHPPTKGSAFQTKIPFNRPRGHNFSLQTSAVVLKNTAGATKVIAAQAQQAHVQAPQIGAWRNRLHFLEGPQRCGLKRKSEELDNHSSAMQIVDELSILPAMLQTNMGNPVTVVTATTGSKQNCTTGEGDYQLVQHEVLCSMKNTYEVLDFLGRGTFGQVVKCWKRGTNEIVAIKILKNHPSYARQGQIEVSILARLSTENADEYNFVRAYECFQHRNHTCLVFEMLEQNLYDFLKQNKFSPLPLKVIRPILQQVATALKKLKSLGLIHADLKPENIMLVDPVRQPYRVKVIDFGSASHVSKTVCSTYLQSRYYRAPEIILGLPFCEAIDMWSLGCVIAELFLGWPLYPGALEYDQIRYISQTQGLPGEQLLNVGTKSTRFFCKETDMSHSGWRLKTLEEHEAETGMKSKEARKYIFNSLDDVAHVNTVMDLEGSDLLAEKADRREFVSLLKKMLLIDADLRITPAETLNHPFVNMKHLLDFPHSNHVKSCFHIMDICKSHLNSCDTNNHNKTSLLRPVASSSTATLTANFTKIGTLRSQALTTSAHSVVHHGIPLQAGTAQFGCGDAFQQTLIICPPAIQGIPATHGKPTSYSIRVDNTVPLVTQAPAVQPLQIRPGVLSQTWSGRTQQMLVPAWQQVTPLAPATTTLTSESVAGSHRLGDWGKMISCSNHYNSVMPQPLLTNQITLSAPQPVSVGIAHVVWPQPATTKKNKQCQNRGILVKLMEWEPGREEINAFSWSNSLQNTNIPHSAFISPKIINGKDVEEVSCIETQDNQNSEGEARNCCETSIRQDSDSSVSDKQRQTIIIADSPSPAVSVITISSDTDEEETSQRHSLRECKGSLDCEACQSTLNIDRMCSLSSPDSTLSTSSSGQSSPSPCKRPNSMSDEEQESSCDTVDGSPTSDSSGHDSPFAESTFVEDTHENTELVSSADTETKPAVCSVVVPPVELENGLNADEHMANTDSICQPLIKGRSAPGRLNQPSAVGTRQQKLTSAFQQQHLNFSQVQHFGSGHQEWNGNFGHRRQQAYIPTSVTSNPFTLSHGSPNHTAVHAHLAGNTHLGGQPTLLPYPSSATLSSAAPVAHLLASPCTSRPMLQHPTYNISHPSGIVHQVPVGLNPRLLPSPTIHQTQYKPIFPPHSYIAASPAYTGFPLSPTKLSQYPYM

Rhodopsin kinase GRK7 = Rhodopsin kinase GRK7 (Homo sapiens, UniProt Q8WTQ7); test: Inhibition of recombinant full length human GST-tagged GRK7 expressed in baculovirus expression system using serine/threonine-16 peptide as substrate incubated for 60 mins in presence of ATP by Z'-LYTE assay
[2] = biological target: Tyrosine-protein kinase JAK2 (Homo sapiens, UniProt O60674); test: Inhibition of human recombinant GST tagged JAK2 catalytic domain expressed in baculovirus expression system using Tyr6 peptide as substrate measured after 1 hr in presence of ATP by Z'-LYTE assay
[3] = biological target: Mitogen-activated protein kinase 3 (Homo sapiens, UniProt P27361); test: Inhibition of recombinant full-length human ERK1 expressed in Escherichia coli at 10 uM using MBP as substrate after 30 mins by radiometric scintillation analysis relative to control
Mitogen-activated protein kinase 3, sequence (P27361 whole entry): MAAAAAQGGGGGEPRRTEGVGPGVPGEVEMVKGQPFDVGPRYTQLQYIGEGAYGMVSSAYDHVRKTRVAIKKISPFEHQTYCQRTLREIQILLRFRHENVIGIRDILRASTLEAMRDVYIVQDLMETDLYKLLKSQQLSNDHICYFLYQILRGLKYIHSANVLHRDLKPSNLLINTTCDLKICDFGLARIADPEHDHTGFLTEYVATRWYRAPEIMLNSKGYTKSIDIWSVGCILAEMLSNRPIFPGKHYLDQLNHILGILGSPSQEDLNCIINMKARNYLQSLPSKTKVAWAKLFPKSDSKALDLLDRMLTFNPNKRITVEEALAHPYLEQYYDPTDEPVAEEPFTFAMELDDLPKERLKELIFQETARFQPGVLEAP

[4] = Half life in rat at 0.5 mg/kg, iv 1 mg/kg, po; type: ADME, organism-based; conditions: in vivo
[5] = biological target: Phosphatidylinositol 4-kinase alpha (Homo sapiens, UniProt P42356); test: Inhibition of recombinant full length human N-terminal GST-tagged PI4KA expressed in baculovirus expression system using PI lipid as substrate incubated for 60 mins in presence of ATP by Adapta assay
[6] = biological target: Alpha-2C adrenergic receptor (Homo sapiens) (UniProt P18825); test: Displacement of [3H]rauwolscine from full-length recombinant human alpha2C receptor expressed in CHOK1 cells at 10 uM measured after 60 mins by scintillation counting method relative to control; type: cell-based; conditions: CHO-K1
[7] = biological target: Phosphorylase b kinase gamma catalytic chain, skeletal muscle/heart isoform (Homo sapiens, UniProt Q16816); test: Inhibition of recombinant full length human GST-tagged PHKG1 expressed in baculovirus expression system using serine/threonine-7 peptide as substrate incubated for 60 mins in presence of ATP by Z'-LYTE assay
[8] = biological target: T1, Phosphatidylinositol 4,5-bisphosphate 3-kinase catalytic subunit delta isoform (Homo sapiens, UniProt O00329); test: Inhibition of PI3K delta (unknown origin) by Adapta assay
T1 sequence (O00329 whole entry): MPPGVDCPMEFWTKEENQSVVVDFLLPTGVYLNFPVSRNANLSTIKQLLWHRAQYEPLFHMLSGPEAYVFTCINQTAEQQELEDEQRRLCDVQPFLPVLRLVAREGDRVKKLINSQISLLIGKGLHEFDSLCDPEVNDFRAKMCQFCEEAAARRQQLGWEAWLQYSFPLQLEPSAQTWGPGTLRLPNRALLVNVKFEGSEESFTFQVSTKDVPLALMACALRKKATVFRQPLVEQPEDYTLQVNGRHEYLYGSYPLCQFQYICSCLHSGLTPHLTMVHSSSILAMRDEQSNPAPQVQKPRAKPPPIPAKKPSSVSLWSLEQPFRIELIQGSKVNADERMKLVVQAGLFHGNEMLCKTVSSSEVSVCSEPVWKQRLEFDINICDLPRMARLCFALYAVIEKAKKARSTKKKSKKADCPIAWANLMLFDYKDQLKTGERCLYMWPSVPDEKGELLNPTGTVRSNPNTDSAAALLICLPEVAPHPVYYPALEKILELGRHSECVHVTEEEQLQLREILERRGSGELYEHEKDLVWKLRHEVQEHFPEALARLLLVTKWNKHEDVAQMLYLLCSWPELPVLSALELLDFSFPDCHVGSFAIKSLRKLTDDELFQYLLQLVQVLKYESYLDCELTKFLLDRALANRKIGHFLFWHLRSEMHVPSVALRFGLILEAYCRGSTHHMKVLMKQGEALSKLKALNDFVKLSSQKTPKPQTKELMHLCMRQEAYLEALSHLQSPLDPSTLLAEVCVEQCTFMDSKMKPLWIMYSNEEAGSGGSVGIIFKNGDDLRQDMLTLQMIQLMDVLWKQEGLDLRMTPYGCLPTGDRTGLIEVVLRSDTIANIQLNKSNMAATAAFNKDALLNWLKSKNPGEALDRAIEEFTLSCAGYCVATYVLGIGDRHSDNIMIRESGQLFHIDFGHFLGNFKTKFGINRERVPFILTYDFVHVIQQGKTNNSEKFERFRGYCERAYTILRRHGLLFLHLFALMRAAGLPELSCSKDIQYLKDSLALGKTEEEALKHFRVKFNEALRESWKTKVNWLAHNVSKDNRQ

[9] = Clearance in dog plasma at 0.5 mg/kg, iv or 1 mg/kg, po; type: ADME, organism-based, Canis lupus familiaris
[10] = biological target: Phosphatidylinositol 4-phosphate 3-kinase C2 domain-containing subunit beta (Homo sapiens, UniProt O00750); test: Inhibition of recombinant GST-tagged human PIK3C2B catalytic domain expressed in baculovirus expression system using PI as substrate after 1 hr in presence of ATP by Adapta assay
Phosphatidylinositol 4-phosphate 3-kinase C2 domain-containing subunit beta, sequence (O00750 whole entry, the tested form may be a part): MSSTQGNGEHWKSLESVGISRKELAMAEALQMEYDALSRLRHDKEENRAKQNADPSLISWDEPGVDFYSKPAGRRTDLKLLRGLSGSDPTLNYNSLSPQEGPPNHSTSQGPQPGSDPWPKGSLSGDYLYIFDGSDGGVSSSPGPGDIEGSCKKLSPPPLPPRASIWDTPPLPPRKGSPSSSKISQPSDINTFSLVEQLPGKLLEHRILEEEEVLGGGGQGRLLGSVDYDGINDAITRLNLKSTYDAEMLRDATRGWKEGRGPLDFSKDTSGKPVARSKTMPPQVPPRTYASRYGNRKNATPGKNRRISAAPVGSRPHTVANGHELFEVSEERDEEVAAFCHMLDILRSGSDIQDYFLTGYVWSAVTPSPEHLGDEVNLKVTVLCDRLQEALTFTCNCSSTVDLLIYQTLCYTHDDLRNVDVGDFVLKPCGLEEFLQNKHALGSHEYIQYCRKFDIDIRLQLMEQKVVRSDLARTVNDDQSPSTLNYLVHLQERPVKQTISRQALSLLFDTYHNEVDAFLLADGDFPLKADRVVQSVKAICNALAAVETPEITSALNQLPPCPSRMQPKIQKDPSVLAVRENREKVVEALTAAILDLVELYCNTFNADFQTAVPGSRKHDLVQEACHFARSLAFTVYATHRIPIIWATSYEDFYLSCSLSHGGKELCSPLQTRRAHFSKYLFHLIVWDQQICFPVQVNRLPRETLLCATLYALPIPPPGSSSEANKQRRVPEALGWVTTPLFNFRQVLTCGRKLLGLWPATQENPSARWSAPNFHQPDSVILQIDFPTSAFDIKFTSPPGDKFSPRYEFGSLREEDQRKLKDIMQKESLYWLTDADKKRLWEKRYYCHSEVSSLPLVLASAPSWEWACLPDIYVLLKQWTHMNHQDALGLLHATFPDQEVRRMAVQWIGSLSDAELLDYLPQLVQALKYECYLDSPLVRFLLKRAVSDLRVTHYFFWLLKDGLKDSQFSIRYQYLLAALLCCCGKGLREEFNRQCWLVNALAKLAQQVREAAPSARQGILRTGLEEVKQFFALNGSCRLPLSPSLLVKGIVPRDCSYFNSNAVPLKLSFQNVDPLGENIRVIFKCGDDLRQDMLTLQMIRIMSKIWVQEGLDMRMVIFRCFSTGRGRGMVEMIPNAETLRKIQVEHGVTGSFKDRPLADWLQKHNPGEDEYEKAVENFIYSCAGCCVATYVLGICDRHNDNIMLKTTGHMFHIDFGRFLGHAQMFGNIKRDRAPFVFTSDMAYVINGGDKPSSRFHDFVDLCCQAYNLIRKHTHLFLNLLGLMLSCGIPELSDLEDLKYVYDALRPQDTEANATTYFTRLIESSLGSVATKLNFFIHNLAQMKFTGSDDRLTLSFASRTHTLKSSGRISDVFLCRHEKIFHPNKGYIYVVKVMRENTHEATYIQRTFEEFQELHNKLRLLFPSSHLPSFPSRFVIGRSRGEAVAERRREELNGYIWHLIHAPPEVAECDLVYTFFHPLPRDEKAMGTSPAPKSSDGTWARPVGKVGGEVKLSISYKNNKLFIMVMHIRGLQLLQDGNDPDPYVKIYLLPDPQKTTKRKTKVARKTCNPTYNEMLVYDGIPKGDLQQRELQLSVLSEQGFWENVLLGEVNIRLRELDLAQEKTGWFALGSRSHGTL

[11] = biological target: Melanocyte-stimulating hormone receptor (Homo sapiens) (UniProt Q01726); test: Displacement of [125I]NDP-alpha-MSH from full length human recombinant MC1 receptor expressed in CHO-K1 cells at 10 uM measured after 120 mins by radiometric scintillation analysis relative to control; type: cell-based
[12] = biological target: Prostaglandin F2-alpha receptor (Homo sapiens) (UniProt P43088); test: Displacement of [3H]PGF2alpha from full length human recombinant prostanoid FP receptor expressed in HEK293 cells at 10 uM measured after 60 mins by radiometric scintillation analysis relative to control; type: cell-based
Prostaglandin F2-alpha receptor (Homo sapiens), sequence (P43088 whole entry, the tested form may be a part): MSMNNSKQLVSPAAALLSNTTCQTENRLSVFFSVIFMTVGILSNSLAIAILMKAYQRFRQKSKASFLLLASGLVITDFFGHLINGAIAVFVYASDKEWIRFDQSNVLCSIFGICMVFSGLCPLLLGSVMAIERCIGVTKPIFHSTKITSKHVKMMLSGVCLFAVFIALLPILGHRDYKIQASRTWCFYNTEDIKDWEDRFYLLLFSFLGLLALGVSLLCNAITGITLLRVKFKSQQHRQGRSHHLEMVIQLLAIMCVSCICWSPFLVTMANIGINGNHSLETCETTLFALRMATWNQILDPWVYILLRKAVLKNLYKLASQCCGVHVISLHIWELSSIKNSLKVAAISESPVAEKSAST

[13] = biological target: Hepatocyte growth factor receptor (Homo sapiens, UniProt P08581, M1250T); test: Inhibition of human recombinant His-tagged cMET M1250T mutant cytoplasmic domain expressed in baculovirus expression system using tyrosine 6 peptide as substrate after 60 mins in presence of ATP FRET based Z'-LYTE assay
Hepatocyte growth factor receptor, sequence (P08581 25-1390 M1250T limits assumed): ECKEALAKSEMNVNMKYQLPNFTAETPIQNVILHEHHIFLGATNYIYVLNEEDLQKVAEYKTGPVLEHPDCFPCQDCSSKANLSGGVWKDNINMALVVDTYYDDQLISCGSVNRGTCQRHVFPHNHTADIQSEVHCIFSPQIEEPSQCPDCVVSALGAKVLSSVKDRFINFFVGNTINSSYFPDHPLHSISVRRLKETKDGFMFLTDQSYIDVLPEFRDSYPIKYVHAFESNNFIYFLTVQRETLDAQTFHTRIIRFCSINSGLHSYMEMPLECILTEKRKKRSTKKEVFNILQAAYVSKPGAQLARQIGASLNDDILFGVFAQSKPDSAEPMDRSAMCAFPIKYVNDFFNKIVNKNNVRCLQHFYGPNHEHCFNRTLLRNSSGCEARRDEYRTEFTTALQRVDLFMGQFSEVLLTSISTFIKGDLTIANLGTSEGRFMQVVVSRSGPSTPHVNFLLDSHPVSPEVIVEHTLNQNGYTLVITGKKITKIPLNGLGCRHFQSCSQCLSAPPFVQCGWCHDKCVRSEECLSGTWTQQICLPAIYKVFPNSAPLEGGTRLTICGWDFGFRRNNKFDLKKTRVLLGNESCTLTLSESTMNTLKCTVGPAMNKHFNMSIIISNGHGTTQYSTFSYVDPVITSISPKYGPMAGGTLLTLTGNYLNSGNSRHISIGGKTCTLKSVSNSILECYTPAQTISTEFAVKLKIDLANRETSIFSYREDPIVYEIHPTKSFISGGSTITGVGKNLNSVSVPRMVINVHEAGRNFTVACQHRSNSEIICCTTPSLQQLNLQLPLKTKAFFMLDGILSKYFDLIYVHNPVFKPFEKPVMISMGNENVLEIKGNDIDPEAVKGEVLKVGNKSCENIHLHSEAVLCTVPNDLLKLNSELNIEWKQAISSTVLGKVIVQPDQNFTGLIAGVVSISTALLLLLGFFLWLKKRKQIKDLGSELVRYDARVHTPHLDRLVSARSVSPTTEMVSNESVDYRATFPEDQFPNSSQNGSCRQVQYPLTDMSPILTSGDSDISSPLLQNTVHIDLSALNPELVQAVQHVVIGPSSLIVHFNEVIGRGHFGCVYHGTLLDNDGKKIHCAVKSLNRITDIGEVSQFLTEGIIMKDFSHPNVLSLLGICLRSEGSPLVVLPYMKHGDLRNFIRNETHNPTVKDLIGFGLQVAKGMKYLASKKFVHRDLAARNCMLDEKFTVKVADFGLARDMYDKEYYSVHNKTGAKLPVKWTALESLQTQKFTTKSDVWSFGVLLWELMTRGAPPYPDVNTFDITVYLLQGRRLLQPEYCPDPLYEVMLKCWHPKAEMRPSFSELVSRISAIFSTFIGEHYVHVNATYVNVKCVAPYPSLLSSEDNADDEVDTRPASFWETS

[14] = biological target: Serine/threonine-protein kinase B-raf (Homo sapiens, UniProt P15056, V600E); test: Inhibition of […] N-terminal GST-tagged human BRAF V599E mutant (416 to 766 residues) expressed in baculovirus expression system using Ser/Thr 03 as substrate after 1 hr in presence of ATP by Z'-LYTE assay
[15] = Distribution coefficient, logD of compound by HPLC analysis; type: physicochemical; conditions: octanol/water
[16] = biological target: Tyrosine-protein kinase ABL1 (Homo sapiens, UniProt P00519, E255K); test: Inhibition of recombinant full length human His-tagged ABL1 E255K mutant cytoplasmic domain expressed in baculovirus expression system using tyrosine-2 peptide as substrate incubated for 60 mins in presence of ATP by Z'-LYTE assay
[17] = biological target: RAC-gamma serine/threonine-protein kinase (Homo sapiens, UniProt Q9Y243); test: Inhibition of recombinant full length human His-tagged AKT3 expressed in baculovirus expression system using Ser/Thr-06 peptide as substrate incubated for 60 mins in presence of ATP by Z'-LYTE assay
[18] = biological target: Serine/threonine-protein kinase 24 (Homo sapiens, UniProt Q9Y6E0); test: Inhibition of recombinant full length human GST-tagged MST3 expressed in baculovirus expression system using serine/threonine-7 peptide as substrate incubated for 60 mins in presence of ATP by Z'-LYTE assay

## C[C@@H]1C[C@H]1C(=O)N1CCN(c2cnc(C#N)c(-c3cnn(C)c3)n2)C[C@H]1C
[1]
  IC50: > 100 µM
Rhodopsin kinase GRK7
  IC50: > 100 µM
[2]
  IC50: > 100 µM
[3]
  inhibition: 18%
[4]
  half-life: 36 min
[5]
  IC50: > 100 µM
[6]
  inhibition: 5%
[7]
  IC50: > 100 µM
[8]
  IC50: < 0.01 µM
[9]
  clearance: 8 mL/min/kg
[10]
  IC50: 40.5 µM
[11]
  inhibition: 3%
[12]
  inhibition: 9%
[13]
  IC50: > 100 µM
[14]
  IC50: > 100 µM
[15]
  logD: 1.6
[16]
  IC50: > 100 µM
[17]
  IC50: > 100 µM
[18]
  IC50: > 100 µM
